Experiments:
[1] = system: E. coli; format: cell-based, Escherichia coli
[2] = system: M. luteus; format: cell-based, Micrococcus luteus
[3] = system: F. graminearum; format: cell-based, Fusarium graminearum
[4] = system: F. oxysporum; format: cell-based, Fusarium oxysporum
[5] = system: L. maculans; format: cell-based, Leptosphaeria maculans
[6] = system: A. rabiei; format: cell-based, Ascochyta rabiei

Substance | concentration at which activity against E. coli was shown [1] [µM] | concentration at which activity against M. luteus was shown [2] [µM] | activity against F. graminearum of fractions purified from hemolymph [3] | concentration level at which activity against spores of F. graminearum was shown [3] [µM] | concentration level at which activity against spores of F. oxysporum was shown [4] [µM] | concentration level at which activity against spores of L. maculans was shown [5] [µM] | activity against M. luteus [2] | activity against spores of F. oxysporum [4] | activity against E. coli [1] | concentration level at which activity against spores of A. rabiei was shown [6] [µM]
Gm-moricinC3: Moricin-like peptide from Galleria mellonella, SEQ ID NO:5; purified from hemolymph and synthesised by Auspep (KVPIGAIKKGGKIIKKGLGVIGAAGTAHEVYSHVKNRQ; listed as Galleria mellonella) | 100 | 100 | activity | 10 | 100 | 100 | – | – | – | –
Gm-moricinC4/C5: Mature Gm-moricinC4 and Gm-moricinC5 from Galleria mellonella, identical mature amino acid sequences (SEQ ID NO:1 and 3), synthesised by Auspep (KVPVGAIKKGGKAIKTGLGVVGAAGTAHEVYSHIRNRH; listed as Galleria mellonella) | 100 | – | – | 100 | – | 100 | no activity | no activity | – | –
Gm-moricinD: Moricin-like antifungal peptide from Galleria mellonella, SEQ ID NO:7; purified from hemolymph and synthesised by Auspep (KGIGSALKKGGKIIKGGLGALGAIGTGQQVYEHVQNRQ; listed as Galleria mellonella) | – | – | activity | 10 | 100 | 100 | no activity | – | no activity | 100
